Experiments:
[1] = test system: gp120 interaction with CD4; settings: Biorn et al. 2004; cited from earlier work
YU2 gp120 = target: T1, YU2 gp120 (Human immunodeficiency virus type 1 group M subtype B, UniProt P35961); type: binding, HIV-1; settings: SPR
T1 construct: immobilized YU2 gp120
Method: Req. was calculated from 280 to 295 seconds in each concentration sensorgram and plotted against the concentration of the peptide.
Increasing concentrations of peptide were passed over an immobilized high density (5000 RU) surface. […] Buffer injections and controls were subtracted for all reported data. The equilibrium constant KD was calculated from the fit of direct binding to a steady state 1:1 binding model as a function of Req.

Row | Compound | inhibition of interaction of gp120 to CD4 (in words) [1] | direct interaction with YU2 gp120 (in words) (YU2 gp120)
1 | CC[C@H](C)[C@H](NC(=O)[C@@H](N)CCCNC(=N)N)C(=O)N[C@@H](CC(N)=O)C(=O)N[C@@H](CC(N)=O)C(=O)N[C@H](C(=O)N1CCC[C@H]1C(=O)N[C@@H](Cc1c[nH]c2ccccc12)C(=O)N[C@@H](CO)C(=O)N[C@@H](CCC(=O)O)C(=O)N[C@@H](C)C(=O)N[C@@H](CCSC)C(=O)N[C@@H](CCSC)C(=O)O)[C@@H](C)CC [Peptide 1] | micromolar affinity | –
2 | RINNIAmpWSEAMM [Peptide 4] | – | no effect on gp120
